Results on 18 compounds are retold here after ChEMBL document CHEMBL1128412, “Mechanism-based development of new antimalarials: synthesis of derivatives of artemisinin attached to iron chelators” (J Med Chem, 1995).

For assay [1], the system named is Plasmodium falciparum. Briefly: In vitro antimalarial activity against Plasmodium falciparum. The class given is functional, organism-based.
Assay [2] deals with Plasmodium falciparum. Briefly: In vitro antimalarial activity against Plasmodium falciparum in 20 mM FeCl3. Format: functional, organism-based.

Take `C[C@H]1[C@@H](OCCCOc2c(O)cccc2O)O[C@@H]2O[C@@]3(C)CC[C@H]4[C@H](C)CC[C@@H]1[C@@]24OO3`: the half-inhibitory concentration (IC50) (commonly the concentration that inhibits the measured activity by half) is 0.00767 µM in the assay with Plasmodium falciparum [1] and 9.21 nM with Plasmodium falciparum [2].

`C[C@H]1[C@@H](OCCCBr)O[C@@H]2O[C@@]3(C)CC[C@H]4[C@H](C)CC[C@@H]1[C@@]24OO3`: in the assay with Plasmodium falciparum [1], the 50% inhibitory concentration (IC50) came to 0.00368 µM.

In the case of `C[C@H]1[C@@H](OCCCONC(=O)c2ccccc2)O[C@@H]2O[C@@]3(C)CC[C@H]4[C@H](C)CC[C@@H]1[C@@]24OO3`, the IC50 in the assay on Plasmodium falciparum [1] was 0.0236 µM; in the assay with Plasmodium falciparum [2] it was 32.9 nM.

Regarding `C[C@H]1[C@@H](OCCCOc2coc(CO)cc2=O)O[C@@H]2O[C@@]3(C)CC[C@H]4[C@H](C)CC[C@@H]1[C@@]24OO3`, the concentration for half-maximal inhibition (IC50) was 0.00955 µM in the assay with Plasmodium falciparum [1] and 16.8 nM in the assay on Plasmodium falciparum [2].

As to `CCN(CC)C(=S)SCCCO[C@H]1O[C@@H]2O[C@@]3(C)CC[C@H]4[C@H](C)CC[C@@H]([C@H]1C)[C@@]24OO3`, the concentration for half-maximal inhibition (IC50) with Plasmodium falciparum [1] was found to be 0.00765 µM.

For the compound `COC(=O)/C=C/c1ccc(OCCCO[C@H]2O[C@@H]3O[C@@]4(C)CC[C@H]5[C@H](C)CC[C@@H]([C@H]2C)[C@@]35OO4)c(O)c1`, the concentration for half-maximal inhibition (IC50) worked out at 0.00478 µM in the assay on Plasmodium falciparum [1] and 3.38 nM in the assay on Plasmodium falciparum [2].

For `C[C@H]1[C@@H](OCCC2Oc3cccc(O)c3O2)O[C@@H]2O[C@@]3(C)CC[C@H]4[C@H](C)CC[C@@H]1[C@@]24OO3` (some centres undefined), it took 0.00664 µM to reach half-maximal inhibition in the assay with Plasmodium falciparum [1] (IC50).

On to `C[C@H]1[C@@H](OCCC2ON2C(=O)c2ccccc2O)O[C@@H]2O[C@@]3(C)CC[C@H]4[C@H](C)CC[C@@H]1[C@@]24OO3` (some centres undefined), for which half-maximal inhibition in the assay with Plasmodium falciparum [1] (IC50) was put at 0.00425 µM.

Take `C[C@H]1[C@@H](OCCCONC(=O)c2ccccc2O)O[C@@H]2O[C@@]3(C)CC[C@H]4[C@H](C)CC[C@@H]1[C@@]24OO3`: the half-maximal inhibitory concentration (IC50) in the assay on Plasmodium falciparum [1] is 0.0525 µM; in the assay with Plasmodium falciparum [2], 48.7 nM.

As for `C[C@H]1[C@@H](OCCCOc2cccc(O)c2O)O[C@@H]2O[C@@]3(C)CC[C@H]4[C@H](C)CC[C@@H]1[C@@]24OO3`, the IC50 with Plasmodium falciparum [1] turned out to be 0.0127 µM.

Consider `C[C@@H]1CC[C@H]2[C@@H](C)C(=O)O[C@@H]3O[C@@]4(C)CC[C@@H]1[C@]32OO4` [ARTEMISININ], for which the results for the concentration for half-maximal inhibition (IC50) in the assay with Plasmodium falciparum [1] and in the assay with Plasmodium falciparum [2] were 0.00582 µM and 5.41 nM, respectively.

In turn, `C[C@H]1[C@@H](O)O[C@@H]2O[C@@]3(C)CC[C@H]4[C@H](C)CC[C@@H]1[C@@]24OO3` [ARTENIMOL] registered an IC50 with Plasmodium falciparum [1] of 0.0011 µM.

For `O=C(NO)c1ccccc1` [BENZOHYDROXAMATE], in the assay on Plasmodium falciparum [1], the IC50 stood at 17.6 µM.

`O=C(O)/C=C/c1ccc(O)c(O)c1` [CAFFEIC ACID]: the IC50 in the assay with Plasmodium falciparum [1] came out at 122 µM.

`O=c1cc(CO)occ1O` [KOJIC ACID] returned a half-inhibitory concentration (IC50) with Plasmodium falciparum [1] of 1580 µM.

Take `COC(=O)/C=C/c1ccc(O)c(O)c1` [METHYLCAFFEATE]: in the assay with Plasmodium falciparum [1], half-maximal inhibition (IC50) required 46.5 µM.

For the compound `Oc1cccc(O)c1O` [PYROGALLOL], inhibition with Plasmodium falciparum [1] was half-maximal at 5.66 µM (IC50).

Turning to `O=C(NO)c1ccccc1O` [SALICYLHYDROXAMIC ACID], inhibition in the assay with Plasmodium falciparum [1] was half-maximal at 107 µM (IC50).
